Molecular target: T1, hTAS1R2 (TAS1R2/TAS1R3 sweet taste receptor) (Homo sapiens, UniProt Q8TE23)
T1 construct: with hTAS1R3 (TAS1R3)
T1 sequence (Q8TE23 20-839): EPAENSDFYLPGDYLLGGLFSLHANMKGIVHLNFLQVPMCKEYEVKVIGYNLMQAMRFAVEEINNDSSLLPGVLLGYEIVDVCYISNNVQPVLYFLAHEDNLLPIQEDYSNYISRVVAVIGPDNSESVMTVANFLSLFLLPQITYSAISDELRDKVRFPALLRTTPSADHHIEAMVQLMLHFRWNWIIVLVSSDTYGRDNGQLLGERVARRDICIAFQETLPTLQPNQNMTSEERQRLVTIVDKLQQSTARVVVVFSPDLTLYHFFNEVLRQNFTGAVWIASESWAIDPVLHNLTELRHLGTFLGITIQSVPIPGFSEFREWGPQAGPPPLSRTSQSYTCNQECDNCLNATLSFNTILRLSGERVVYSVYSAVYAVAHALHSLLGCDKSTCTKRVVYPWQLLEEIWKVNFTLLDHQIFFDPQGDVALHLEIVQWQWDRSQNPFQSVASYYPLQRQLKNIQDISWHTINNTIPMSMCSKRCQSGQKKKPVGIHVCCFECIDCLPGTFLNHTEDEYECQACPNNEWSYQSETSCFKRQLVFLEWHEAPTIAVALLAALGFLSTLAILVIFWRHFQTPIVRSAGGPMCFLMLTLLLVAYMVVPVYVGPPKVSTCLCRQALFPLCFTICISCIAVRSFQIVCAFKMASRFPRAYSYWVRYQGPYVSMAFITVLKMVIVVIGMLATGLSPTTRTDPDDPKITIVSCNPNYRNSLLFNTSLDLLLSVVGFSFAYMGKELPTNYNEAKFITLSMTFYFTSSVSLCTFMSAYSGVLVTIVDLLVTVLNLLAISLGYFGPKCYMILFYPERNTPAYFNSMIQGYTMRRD
T1 sequence (Q7RTX0 21-852 partner): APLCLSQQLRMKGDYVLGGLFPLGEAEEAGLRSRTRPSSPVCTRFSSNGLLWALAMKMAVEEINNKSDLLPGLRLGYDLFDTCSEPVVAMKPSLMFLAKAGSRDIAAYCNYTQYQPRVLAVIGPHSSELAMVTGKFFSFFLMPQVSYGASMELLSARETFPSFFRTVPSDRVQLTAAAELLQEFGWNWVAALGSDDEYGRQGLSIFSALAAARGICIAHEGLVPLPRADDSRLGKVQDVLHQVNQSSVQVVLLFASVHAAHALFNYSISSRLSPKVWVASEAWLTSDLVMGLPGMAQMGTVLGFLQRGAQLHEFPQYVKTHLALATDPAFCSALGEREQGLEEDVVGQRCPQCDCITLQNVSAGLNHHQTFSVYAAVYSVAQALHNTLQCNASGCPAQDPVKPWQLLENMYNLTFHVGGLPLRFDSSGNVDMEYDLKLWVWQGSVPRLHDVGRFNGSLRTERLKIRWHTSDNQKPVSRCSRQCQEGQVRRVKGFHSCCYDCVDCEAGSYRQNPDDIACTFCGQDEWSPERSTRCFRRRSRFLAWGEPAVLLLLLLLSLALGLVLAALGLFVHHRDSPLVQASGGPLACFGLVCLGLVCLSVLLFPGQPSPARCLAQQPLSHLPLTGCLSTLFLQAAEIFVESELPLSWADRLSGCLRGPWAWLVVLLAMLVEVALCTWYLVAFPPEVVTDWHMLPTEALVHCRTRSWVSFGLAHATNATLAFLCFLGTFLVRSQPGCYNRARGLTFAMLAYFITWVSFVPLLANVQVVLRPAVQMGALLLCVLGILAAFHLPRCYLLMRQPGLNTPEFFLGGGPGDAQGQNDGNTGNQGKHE
Assay: calcium mobilization (GCaMP5G, FLIPR) in HEK293T-Gα[…]gust44 cells transfected with hTAS1R2 and hTAS1R3, mock-subtracted
Format: cell-based

OC[C@H]1O[C@H](O[C@]2(CCl)O[C@H](CCl)[C@@H](O)[C@@H]2O)[C@H](O)[C@@H](O)[C@H]1Cl [sucralose]
EC50: 52 ± 7 µM
